Test results: US11759462B2, “Spirocyclic compounds as tryptophan hydroxylase inhibitors” (priority 2013, dated 2023)
Where two headings read alike, the source gives them in different places.

Biological target: T1, Recombinant human TPH1 (MBP tagged) (Homo sapiens, UniProt P17752)
T1 construct: cloning full length human TPH1 cDNA in to a bacterial pMAL-c5E expression vector; made in house; host or cells: E. coli BL21 (DE3)
T1 sequence (P17752 1-444): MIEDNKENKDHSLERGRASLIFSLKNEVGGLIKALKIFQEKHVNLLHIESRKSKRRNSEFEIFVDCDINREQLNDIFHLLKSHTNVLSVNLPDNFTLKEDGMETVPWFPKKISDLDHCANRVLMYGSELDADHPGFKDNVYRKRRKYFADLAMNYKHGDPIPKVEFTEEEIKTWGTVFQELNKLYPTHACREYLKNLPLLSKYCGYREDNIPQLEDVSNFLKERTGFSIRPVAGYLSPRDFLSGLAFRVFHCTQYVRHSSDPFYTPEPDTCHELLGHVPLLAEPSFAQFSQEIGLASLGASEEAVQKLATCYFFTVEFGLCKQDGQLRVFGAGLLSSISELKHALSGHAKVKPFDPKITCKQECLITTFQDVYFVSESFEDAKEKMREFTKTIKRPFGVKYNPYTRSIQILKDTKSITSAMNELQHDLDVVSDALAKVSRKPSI
Assay: TPH1 in vitro inhibition assay (kinetic fluorescence)
Format: biochemical
Procedure, shortened: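 Final mix: 15 nM MBP-TPH1, 30 μM Trp, 36 μM 6-methyltetrahydropterin, 25 μM ferrous ammonium sulfate, 50 mM MES pH 7.1, 1% DMSO, room temperature.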

[1] = read-out: TPH1 Range (TPH1 inhibition IC50)
[2] = TPH1 Range (TPH1 inhibition IC50)

Row | IC50 [1] | Molecule | IC50 [2]
1 | < 0.05 µM | Nc1nc(O[C@H](c2ccc(-c3ccc4[nH]cnc4c3)cc2)C(F)(F)F)cc(N2CCC3(CC2)CN[C@H](C(=O)O)C3)n1 [Example 55d, (S)-8-(6-((R)-1-(4-(1H-benzo[d]imidazol-5-yl)phenyl)-2,2,2-trifluoroethoxy)-2-aminopyrimidin-4-yl)-2,8-diazaspiro[4.5]decane-3-carboxylic acid] | –
2 | – | CN(C)S(=O)(=O)c1cccc(-c2cc(Cl)ccc2[C@@H](Oc2cc(N3CCC4(CC3)CN[C@H](C(=O)O)C4)nc(N)n2)C(F)(F)F)c1 [Example 34cl, (S)-8-(2-amino-6-((R)-1-(5-chloro-3′-(N,N-dimethylsulfamoyl)-[1,1′-biphenyl]-2-yl)-2,2,2-trifluoroethoxy)pyrimidin-4-yl)-2,8-diazaspiro[4.5]decane-3-carboxylic acid] | 0.05 to 0.3 µM
3 | 0.05 to 0.3 µM | COc1ccc2cc(-c3ccc([C@@H](Oc4cc(N5CCC6(CC5)CN[C@H](C(=O)O)C6)nc(N)n4)C(F)(F)F)cc3)ccc2n1 [Example 55ah, (S)-8-(2-amino-6-((R)-2,2,2-trifluoro-1-(4-(2-methoxyquinolin-6-yl)phenyl)ethoxy)pyrimidin-4-yl)-2,8-diazaspiro[4.5]decane-3-carboxylic acid] | –
4 | 0.05 to 0.3 µM | COc1ccc([C@@H](Oc2cc(N3CCC4(CC3)CN[C@H](C(=O)O)C4)nc(N)n2)C(F)(F)F)c(-n2ccc(C)n2)c1 [Example 10l, (S)-8-(2-amino-6-((R)-2,2,2-trifluoro-1-(4-methoxy-2-(3-methyl-1H-pyrazol-1-yl)phenyl)ethoxy)pyrimidin-4-yl)-2,8-diazaspiro[4.5]decane-3-carboxylic acid] | –
5 | < 0.05 µM | Cc1ccn(-c2cc(-c3ccc(C)c(Cl)c3)ccc2[C@@H](Oc2cc(N3CCC4(CC3)CN[C@H](C(=O)O)C4)nc(N)n2)C(F)(F)F)n1 [Example 1bp, (S)-8-(2-amino-6-((R)-1-(3′-chloro-4′-methyl-3-(3-methyl-1H-pyrazol-1-yl)-[1,1′-biphenyl]-4-yl)-2,2,2-trifluoroethoxy)pyrimidin-4-yl)-2,8-diazaspiro[4.5]decane-3-carboxylic acid] | –
6 | 0.05 to 0.3 µM | Nc1nc(O[C@H](c2ccc(-c3ccccc3)cc2-c2ccccc2)C(F)(F)F)cc(N2CCC3(CC2)CN[C@H](C(=O)O)C3)n1 [Example 54g, (S)-8-(6-((R)-1-([1,1′:3′,1″-terphenyl]-4′-yl)-2,2,2-trifluoroethoxy)-2-aminopyrimidin-4-yl)-2,8-diazaspiro[4.5]decane-3-carboxylic acid] | –
7 | 0.05 to 0.3 µM | Cn1ccc(-c2cc(Cl)ccc2[C@@H](Oc2cc(N3CCC4(CC3)CN[C@H](C(=O)O)C4)nc(N)n2)C(F)(F)F)n1 [Example 34t, (S)-8-(2-amino-6-((R)-1-(4-chloro-2-(1-methyl-1H-pyrazol-3-yl)phenyl)-2,2,2-trifluoroethoxy)pyrimidin-4-yl)-2,8-diazaspiro[4.5]decane-3-carboxylic acid] | –
8 | 0.05 to 0.3 µM | Cc1ccn(-c2cc(-c3ccc(OC(F)(F)F)cc3)ccc2[C@@H](Oc2cc(N3CCC4(CC3)CN[C@H](C(=O)O)C4)nc(C)n2)C(F)(F)F)n1 [Example 29t, (S)-8-(2-methyl-6-((R)-2,2,2-trifluoro-1-(3-(3-methyl-1H-pyrazol-1-yl)-4′-(trifluoromethoxy)-[1,1′-biphenyl]-4-yl)ethoxy)pyrimidin-4-yl)-2,8-diazaspiro[4.5]decane-3-carboxylic acid] | –
9 | – | Nc1nc(O[C@@H](c2ccc(Cl)cc2-c2ccccc2)C(F)(F)F)cc(N2CCC3(CC2)CN[C@@H](C(=O)O)C3)n1 [Example 54i, (R)-8-(2-amino-6-((S)-1-(5-chloro-[1,1′-biphenyl]-2-yl)-2,2,2-trifluoroethoxy)pyrimidin-4-yl)-2,8-diazaspiro[4.5]decane-3-carboxylic acid] | 3 to 10 µM
10 | 0.3 to 3 µM | Cc1cccc(C)c1-c1ccc([C@@H](Oc2cc(N3CCC4(CC3)CN[C@H](C(=O)O)C4)nc(N)n2)C(F)(F)F)cc1 [Example 55cg, (S)-8-(2-amino-6-((R)-1-(2′,6′-dimethyl-[1,1′-biphenyl]-4-yl)-2,2,2-trifluoroethoxy)pyrimidin-4-yl)-2,8-diazaspiro[4.5]decane-3-carboxylic acid] | –
11 | < 0.05 µM | Cc1ccn(-c2cc(-c3ccc(C(F)(F)F)c(Cl)c3)ccc2[C@@H](Oc2cc(N3CCC4(CC3)CN[C@H](C(=O)O)C4)nc(N)n2)C(F)(F)F)n1 [Example 1bl, (S)-8-(2-amino-6-((R)-1-(3′-chloro-3-(3-methyl-1H-pyrazol-1-yl)-4′-(trifluoromethyl)-[1,1′-biphenyl]-4-yl)-2,2,2-trifluoroethoxy)pyrimidin-4-yl)-2,8-diazaspiro[4.5]decane-3-carboxylic acid] | –
12 | < 0.05 µM | COc1ccccc1-c1ccc([C@@H](Oc2cc(N3CCC4(CC3)CN[C@H](C(=O)O)C4)nc(C)n2)C(F)(F)F)c(-n2ccc(C)n2)c1 [Example 29p, (S)-8-(2-methyl-6-((R)-2,2,2-trifluoro-1-(2′-methoxy-3-(3-methyl-1H-pyrazol-1-yl)-[1,1′-biphenyl]-4-yl)ethoxy)pyrimidin-4-yl)-2,8-diazaspiro[4.5]decane-3-carboxylic acid] | –
13 | < 0.05 µM | COc1ccc(-c2ccc([C@@H](Oc3cc(N4CCC5(CC4)CN[C@H](C(=O)O)C5)nc(C)n3)C(F)(F)F)c(-n3ccc(C)n3)c2)cc1F [Example 29l, (S)-8-(2-methyl-6-((R)-2,2,2-trifluoro-1-(3′-fluoro-4′-methoxy-3-(3-methyl-1H-pyrazol-1-yl)-[1,1′-biphenyl]-4-yl)ethoxy)pyrimidin-4-yl)-2,8-diazaspiro[4.5]decane-3-carboxylic acid] | –
14 | – | Nc1nc(O[C@H](c2ccc(-c3ccc4[nH]ncc4c3)cc2)C(F)(F)F)cc(N2CCC3(CC2)CN[C@H](C(=O)O)C3)n1 [Example 55w, (S)-8-(6-((R)-1-(4-(1H-indazol-5-yl)phenyl)-2,2,2-trifluoroethoxy)-2-aminopyrimidin-4-yl)-2,8-diazaspiro[4.5]decane-3-carboxylic acid] | < 0.05 µM
15 | 0.05 to 0.3 µM | Nc1nc(O[C@H](c2ccc(Cl)cc2-c2ccc(C(F)(F)F)c(Cl)c2)C(F)(F)F)cc(N2CCC3(CC2)CN[C@H](C(=O)O)C3)n1 [Example 34ax, (S)-8-(2-amino-6-((R)-1-(3′,5-dichloro-4′-(trifluoromethyl)-[1,1′-biphenyl]-2-yl)-2,2,2-trifluoroethoxy)pyrimidin-4-yl)-2,8-diazaspiro[4.5]decane-3-carboxylic acid] | –
16 | < 0.05 µM | CCCOC(=O)c1ccc([C@@H](Oc2cc(N3CCC4(CC3)CN[C@H](C(=O)O)C4)nc(N)n2)C(F)(F)F)c(-n2ccc(C)n2)c1 [Example 18b, (S)-8-(2-amino-6-((R)-2,2,2-trifluoro-1-(2-(3-methyl-1H-pyrazol-1-yl)-4-(propoxycarbonyl)phenyl)ethoxy)pyrimidin-4-yl)-2,8-diazaspiro[4.5]decane-3-carboxylic acid] | –
17 | < 0.05 µM | Nc1nc(O[C@H](c2ccccc2-c2cccc(Cl)c2)C(F)(F)F)cc(N2CCC3(CC2)CN[C@H](C(=O)O)C3)n1 [Example 42a, (S)-8-(2-amino-6-((R)-1-(3′-chloro-[1,1′-biphenyl]-2-yl)-2,2,2-trifluoroethoxy)pyrimidin-4-yl)-2,8-diazaspiro[4.5]decane-3-carboxylic acid] | –

Row | Molecule | IC50 [1] | IC50 [2]
18 | (S)-8-(2-amino-6-((R)-1-(3,4-dihydroquinazolin-6-yl)-2,2,2-trifluoroethoxy)pyrimidin-4-yl)-2,8-diazaspiro[4.5]decane-3-carboxylic acid [Example 57] | 0.05 to 0.3 µM | –
